Assay results published in paper PMC5951806, “Rapid labelling and covalent inhibition of intracellular native proteins using ligand-directed N-acyl-N-alkyl sulfonamide” (Nature Communications, 2018).

Experiments:
Experiment in all cases: TMT LC-MSMS of 11-labelled proteins
Format in all cases: cell-based
[1] = target: T1, Elongation factor 1-alpha 1 (EEF1A1) (Homo sapiens, UniProt P68104)
T1 sequence (P68104 1-462): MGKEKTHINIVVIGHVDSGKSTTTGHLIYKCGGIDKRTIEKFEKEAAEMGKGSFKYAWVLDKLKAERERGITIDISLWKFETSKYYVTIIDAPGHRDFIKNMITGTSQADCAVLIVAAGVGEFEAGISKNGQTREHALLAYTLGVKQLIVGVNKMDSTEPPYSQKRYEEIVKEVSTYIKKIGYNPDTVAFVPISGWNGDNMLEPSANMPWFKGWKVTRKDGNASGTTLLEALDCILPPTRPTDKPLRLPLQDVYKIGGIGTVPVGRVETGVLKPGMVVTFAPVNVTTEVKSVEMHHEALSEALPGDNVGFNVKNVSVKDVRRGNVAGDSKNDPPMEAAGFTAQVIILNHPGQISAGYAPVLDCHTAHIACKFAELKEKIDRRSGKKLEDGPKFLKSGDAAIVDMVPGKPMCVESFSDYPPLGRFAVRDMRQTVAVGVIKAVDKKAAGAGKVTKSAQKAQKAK

[2] = target: Isoform 3 of L-lactate dehydrogenase A chain (LDHA) (Homo sapiens, UniProt P00338)
[3] = target: elongation factor Tu, mitochondrial (TUFM) (Homo sapiens, UniProt P49411)
[4] = sheet Exp1, SKBR3 cells, 11 0.5 µM 3 h vs DMSO
[5] = sheet Exp1, SKBR3 cells, 11 0.5 µM 3 h vs with PU-H71 10 µM
[6] = sheet Merged, SKBR3 cells, 11 0.5 µM 3 h vs DMSO
[7] = sheet Merged, SKBR3 cells, 11 0.5 µM 3 h vs with PU-H71 10 µM

Abundance Ratio: (11) / (11 with PU-H71) ([1]; Exp3, EEF1A1): 0.806
Abundance Ratio: (11) / (DMSO) ([1]; Exp3, EEF1A1): 4.916
Abundances (Grouped): 11 ([1]; Exp3, EEF1A1): 720.2
Abundances (Grouped): 11 with PU-H71 ([1]; Exp3, EEF1A1): 894
Abundance Ratio: (11) / (DMSO) [1, 4]: 4.039
Abundance Ratio: (11) / (11 with PU-H71) [1, 5]: 0.803
Abundance Ratio: (11) / (11 with PU-H71) ([1]; sheet Exp2, EEF1A1): 0.83
Abundance Ratio: (11) / (DMSO) ([1]; sheet Exp2, EEF1A1): 3.879
Abundances (Grouped): 11 ([1]; sheet Exp2, EEF1A1): 725.4
Abundances (Grouped): 11 with PU-H71 ([1]; sheet Exp2, EEF1A1): 874.4
Abundance Ratio: (11) / (DMSO) [1, 6]: 3.879
Abundance Ratio: (11) / (11 with PU-H71) [1, 7]: 0.811
Abundance Ratio: (11) / (11 with PU-H71) ([2]; Exp3, LDHA): 0.709
Abundance Ratio: (11) / (DMSO) ([2]; Exp3, LDHA): 4.426
Abundances (Grouped): 11 ([2]; Exp3, LDHA): 517.9
Abundances (Grouped): 11 with PU-H71 ([2]; Exp3, LDHA): 730.3
Abundance Ratio: (11) / (DMSO) [2, 4]: 4.186
Abundance Ratio: (11) / (11 with PU-H71) [2, 5]: 0.705
Abundance Ratio: (11) / (11 with PU-H71) ([2]; sheet Exp2, LDHA): 0.702
Abundance Ratio: (11) / (DMSO) ([2]; sheet Exp2, LDHA): 3.79
Abundances (Grouped): 11 ([2]; sheet Exp2, LDHA): 554.9
Abundances (Grouped): 11 with PU-H71 ([2]; sheet Exp2, LDHA): 790.3
Abundance Ratio: (11) / (DMSO) [2, 6]: 4.186
Abundance Ratio: (11) / (11 with PU-H71) [2, 7]: 0.705
Abundance Ratio: (11) / (11 with PU-H71) ([3]; sheet Exp2, TUFM): 1.006
Abundance Ratio: (11) / (DMSO) ([3]; sheet Exp2, TUFM): 2.039
Abundances (Grouped): 11 ([3]; sheet Exp2, TUFM): 67.3
Abundances (Grouped): 11 with PU-H71 ([3]; sheet Exp2, TUFM, with PU-H71): 66.9
Abundance Ratio: (11) / (DMSO) [3, 6]: 2.024
Abundance Ratio: (11) / (11 with PU-H71) [3, 7]: 0.818
Compound: CC(=O)Oc1ccc2c(c1)Oc1cc(OC(C)=O)ccc1C21OC(=O)c2cc(C(=O)NCCOCCOCCNC(=O)CCCC(=O)N(CC#N)S(=O)(=O)c3ccc(C(=O)NCCCn4c(Sc5cc6c(cc5I)OCO6)nc5c(N)ncnc54)cc3)ccc21 [compound 11]
